Active and inactive are the calls of the source. The calls are words filed in the database; no cut-off is given here.
system: SH-SY5Y; test: Neuroprotective activity against amyloid beta (25 to 35)-induced cytotoxicity in human SH-SY5Y cells at 10 uM preincubated for 2 hrs followed by amyloid beta (25 to 35)-stimulation and measured after 24 hrs by MTT assay (reference value: 71.18 +/- 1.34); type: functional

Row | SMILES | Activity
1 | CCC(C)C(=O)O[C@H]1[C@@H](OC(C)=O)C[C@@H](C)[C@]23OC(C)(C)[C@H](C[C@@H](OC(=O)c4ccccc4)[C@]12COC(C)=O)[C@H]3OC(C)=O (some centres not stated) | 88.34%
2 | CC(=O)OC[C@]12C(=O)[C@@H](OC(=O)c3ccccc3)[C@@H]3[C@@H](OC(C)=O)[C@]1(OC3(C)C)[C@H](C)C[C@H](OC(=O)c1cccnc1)[C@@H]2O | 74.16%
3 | O=C(O[C@@H]1Cc2c(O)cc(O)cc2O[C@@H]1c1cc(O)c(O)c(O)c1)c1cc(O)c(O)c(O)c1 [EPIGALOCATECHIN GALLATE] | 87.2%
4 | CC(=O)OC[C@]12[C@@H](OC(=O)c3ccccc3)C[C@@H]3[C@@H](OC(C)=O)[C@]1(OC3(C)C)[C@H](C)C[C@H](OC(=O)c1ccccc1)[C@@H]2OC(C)=O | 83.04%
5 | CC(=O)OC[C@]12[C@H](OC(=O)c3ccccc3)C[C@@H]3[C@@H](OC(C)=O)[C@]1(OC3(C)C)[C@H](C)C[C@H](OC(C)=O)[C@@H]2OC(C)=O | 79.62%
6 | CCC(C)C(=O)O[C@H]1C[C@](C)(O)[C@]23OC(C)(C)[C@H](C[C@H](OC(=O)c4ccccc4)[C@]2(COC(C)=O)[C@H]1OC(=O)C(C)CC)[C@H]3OC(C)=O (some centres not stated) | 92.86%
7 | CC(=O)OC[C@]12[C@H](OC(C)=O)[C@H](OC(=O)c3ccccc3)[C@@H]3[C@@H](OC(C)=O)[C@]1(OC3(C)C)[C@H](C)C[C@H](OC(=O)c1ccccc1)[C@@H]2OC(=O)c1ccccc1 | 80.92%
8 | CC(=O)OC[C@]12[C@H](OC(=O)c3ccoc3)C[C@@H]3[C@@H](OC(C)=O)[C@]1(OC3(C)C)[C@@](C)(O)C[C@H](OC(=O)c1ccccc1)[C@@H]2OC(=O)c1ccoc1 | 80.8%
9 | CCC(C)C(=O)O[C@H]1[C@@H](OC(=O)c2ccoc2)C[C@](C)(O)[C@]23OC(C)(C)[C@H](C[C@H](OC(=O)c4ccoc4)[C@]12COC(C)=O)[C@H]3OC(C)=O (some centres not stated) | 82.96%
10 | CC(=O)OC[C@]12[C@H](OC(=O)c3ccoc3)C[C@@H]3[C@@H](OC(C)=O)[C@]1(OC3(C)C)[C@@](C)(O)C[C@H](OC(=O)c1ccoc1)[C@@H]2OC(=O)c1ccoc1 | 70.11%
11 | CC(=O)OC[C@]12[C@H](OC(C)=O)[C@H](OC(=O)c3ccccc3)[C@@H]3[C@@H](OC(C)=O)[C@]1(OC3(C)C)[C@H](C)C[C@H](O)[C@@H]2OC(=O)c1ccccc1 | 85.91%
12 | CCC(C)C(=O)O[C@H]1C[C@](C)(O)[C@]23OC(C)(C)[C@H](C[C@@H](OC(=O)c4ccoc4)[C@]2(COC(C)=O)[C@H]1OC(=O)c1ccoc1)[C@H]3OC(C)=O (some centres not stated) | 71%
13 | CC[C@H](C)C(=O)O[C@@H]1[C@H]2[C@@H](OC(C)=O)[C@]3(OC2(C)C)[C@H](C)C[C@H](OC(=O)c2ccccc2)[C@H](OC(=O)c2ccccc2)[C@@]3(COC(C)=O)[C@@H]1OC(C)=O | 80.11%
14 | CCCCCC(=O)O[C@H]1C[C@@H](C)[C@]23OC(C)(C)[C@H]([C@@H](OC(=O)c4ccccc4)[C@@H](OC(C)=O)[C@]2(COC(C)=O)[C@H]1OC(=O)c1ccccc1)[C@H]3OC(C)=O | 86.65%
15 | CC(=O)OC[C@]12[C@H](OC(C)=O)[C@H](OC(=O)c3ccccc3)[C@@H]3[C@@H](OC(C)=O)[C@]1(OC3(C)C)[C@H](C)C[C@H](OC(C)=O)[C@@H]2OC(=O)c1ccccc1 | 80.75%

species: Danio rerio; test: Neuroprotective activity against PTZ-induced seizure in zebra fish AB at 10 uM pretreated for 24 hrs followed by PTZ-stimulation and measured after 15 mins; type: functional, organism-based

Row | SMILES | Activity
16 | CC(=O)OC[C@]12[C@@H](OC(=O)c3ccccc3)C[C@@H]3[C@@H](OC(C)=O)[C@]1(OC3(C)C)[C@H](C)C[C@H](OC(=O)c1ccccc1)[C@@H]2OC(C)=O | inactive
17 | CC(=O)OC[C@]12[C@H](OC(C)=O)[C@H](OC(=O)c3ccccc3)[C@@H]3[C@@H](OC(C)=O)[C@]1(OC3(C)C)[C@H](C)C[C@H](OC(C)=O)[C@@H]2OC(=O)c1ccccc1 | Active

Source: ChEMBL document CHEMBL4334521, “Neuroprotective Dihydro-β-agarofuran-Type Sesquiterpenes from the Seeds of Euonymus maackii” (2019)
